Reference: US8530465B2, “1, 2-disubstituted amido-anthraquinone derivatives, preparation method and application thereof” (National Defense Medical Center, priority 2010, dated 2013)

Legend:
Format in all cases: cell-based, human
[1] = MTT assay, PhTERT-SEAP (H1299); conditions: human, H1299 cells carrying the PhTERT-SEAP reporter, PhTERT-SEAP (H1299); for viability at 1 μM: Conc. 1 μM, read-out: Relative MTT viability (%); for viability at 10 μM: Conc. 10 μM; for viability at 10 μM / viability at 100 μM: read-out: Relative MTT viability (%) (converted); for viability at 100 μM: Conc. 100 μM
Outline: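 Cultured cells received MTT for 4 h at 37 °C, then lysis buffer overnight at 37 °C. Optical density was read at 550 nm.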

MOLT-4 = test: NCI drug screen, MOLT-4; conditions: MOLT-4 (Leukemia); 1.00E−5 Molar
Method: (§1) In brief, cellular protein levels were determined after 48 hours of drug exposure by sulforhodamine B colorimetry. Through the use of a time 0 cell control, the cell growth can be determined for each cell line thus allowing calculations of the 50% growth inhibitory concentration (GI50), the total growth inhibition (TGI), and the 50% lethal concentration (LC50). Comparison to plates not exposed to drug permits determination of concentration and times of exposure conferring 50% net growth inhibition (GI50), TGI, and 50% cell kill (LC50).
(§2) The screening system in United State National Cancer Institute (NCI) is consisted of 60 kinds of different human cancer cells, which can be used to assay the growth-inhibiting ability or cell toxicity of a compound against various cancer and tumor at a certain concentration.

EKVX = test: NCI drug screen, EKVX; conditions: EKVX (Non-Small Cell Lung Cancer); 1.00E−5 Molar
Method: as §1, §2

NCI-H23 = test: NCI drug screen, NCI-H23; conditions: NCI-H23 (Non-Small Cell Lung Cancer); 1.00E−5 Molar
Method: as §1, §2

COLO 205 = test: NCI drug screen, COLO 205; conditions: COLO 205 (Colon Cancer); 1.00E−5 Molar
Method: as §1, §2

SF-268 = test: NCI drug screen, SF-268; conditions: SF-268 (CNS Cancer); 1.00E−5 Molar
Method: as §1, §2

SF-539 = test: NCI drug screen, SF-539; conditions: SF-539 (CNS Cancer); 1.00E−5 Molar
Method: as §1, §2

SNB-19 = test: NCI drug screen, SNB-19; conditions: SNB-19 (CNS Cancer); 1.00E−5 Molar
Method: as §1, §2

U251 = test: NCI drug screen, U251; conditions: U251 (CNS Cancer); 1.00E−5 Molar
Method: as §1, §2

MALME-3M = test: NCI drug screen, MALME-3M; conditions: MALME-3M (Melanoma); 1.00E−5 Molar
Method: as §1, §2

MDA-MB-435 = test: NCI drug screen, MDA-MB-435; conditions: MDA-MB-435 (Melanoma); 1.00E−5 Molar
Method: as §1, §2

SK-MEL-2 = test: NCI drug screen, SK-MEL-2; conditions: SK-MEL-2 (Melanoma); 1.00E−5 Molar
Method: as §1, §2

SK-MEL-28 = test: NCI drug screen, SK-MEL-28; conditions: SK-MEL-28 (Melanoma); 1.00E−5 Molar
Method: as §1, §2

SK-MEL-5 = test: NCI drug screen, SK-MEL-5; conditions: SK-MEL-5 (Melanoma); 1.00E−5 Molar
Method: as §1, §2

UACC-62 = test: NCI drug screen, UACC-62; conditions: UACC-62 (Melanoma); 1.00E−5 Molar
Method: as §1, §2

IGROV1 = test: NCI drug screen, IGROV1; conditions: IGROV1 (Ovarian Cancer); 1.00E−5 Molar
Method: as §1, §2

OVCAR-3 = test: NCI drug screen, OVCAR-3; conditions: OVCAR-3 (Ovarian Cancer); 1.00E−5 Molar
Method: as §1, §2

OVCAR-4 = test: NCI drug screen, OVCAR-4; conditions: OVCAR-4 (Ovarian Cancer); 1.00E−5 Molar
Method: as §1, §2

OVCAR-5 = test: NCI drug screen, OVCAR-5; conditions: OVCAR-5 (Ovarian Cancer); 1.00E−5 Molar
Method: as §1, §2

OVCAR-8 = test: NCI drug screen, OVCAR-8; conditions: OVCAR-8 (Ovarian Cancer); 1.00E−5 Molar
Method: as §1, §2

NCI/ADR-RES = test: NCI drug screen, NCI/ADR-RES; conditions: for Growth Percent: NCI/ADR-RES (Ovarian Cancer), 1.00E−5 Molar
Method: as §1, §2

SK-OV-3 = test: NCI drug screen, SK-OV-3; conditions: SK-OV-3 (Ovarian Cancer); 1.00E−5 Molar
Method: as §1, §2

786-0 = test: NCI drug screen, 786-0; conditions: 786-0 (Renal Cancer); 1.00E−5 Molar
Method: as §1, §2

UO-31 = test: NCI drug screen, UO-31; conditions: UO-31 (Renal Cancer); 1.00E−5 Molar
Method: as §1, §2

RXF 393 = test: NCI drug screen, RXF 393; conditions: RXF 393 (Renal Cancer); 1.00E−5 Molar
Method: as §1, §2

PC-3 = test: NCI drug screen, PC-3; conditions: PC-3 (Prostate Cancer); 1.00E−5 Molar
Method: as §1, §2

BT-549 = test: NCI drug screen, BT-549; conditions: BT-549 (Breast Cancer); 1.00E−5 Molar
Method: as §1, §2

T-47D = test: NCI drug screen, T-47D; conditions: T-47D (Breast Cancer); 1.00E−5 Molar
Method: as §1, §2

MDA-MB-468 = test: NCI drug screen, MDA-MB-468; conditions: MDA-MB-468 (Breast Cancer); 1.00E−5 Molar
Method: as §1, §2

SR = test: NCI drug screen, SR; conditions: SR (Leukemia); 1.00E−5 Molar
Method: as §1, §2

SMILES | viability at 1 μM [1] [%] | viability at 10 μM [1] [%] | viability at 100 μM [1] [%] | Growth Percent (MOLT-4) [%] | Growth Percent (EKVX) [%] | Growth Percent (NCI-H23) [%] | Growth Percent (COLO 205) [%] | Growth Percent (SF-268) [%] | Growth Percent (SF-539) [%] | Growth Percent (SNB-19) [%] | Growth Percent (U251) [%] | Growth Percent (MALME-3M) [%] | Growth Percent (MDA-MB-435) [%] | Growth Percent (SK-MEL-2) [%] | Growth Percent (SK-MEL-28) [%] | Growth Percent (SK-MEL-5) [%] | Growth Percent (UACC-62) [%] | Growth Percent (IGROV1) [%] | Growth Percent (OVCAR-3) [%] | Growth Percent (OVCAR-4) [%] | other results
Cc1ccc(C(=O)Nc2c(NC(=O)CN3CCCC3)ccc3c2C(=O)c2ccccc2C3=O)cc1 [CC-38, 1-(4-methylbenzamido)-2-[2-(tetrahydro-1H-1-pyrrolyl)acetylamino]-anthra quinone] | 88.2 ± 4.94 | 69 | 5.05 | 48.20 | 65.93 | 73.29 | 65.60 | 86.17 | 81.29 | 108.22 | 82.17 | 82.24 | 79.14 | 102.17 | 92.18 | 61.74 | 76.82 | 106.07 | 77.82 | 47.06 | Growth Percent (OVCAR-5): 102.31%; Growth Percent (OVCAR-8): 65.02%; Growth Percent (NCI/ADR-RES): 50.86%; Growth Percent (SK-OV-3): 82.13%; Growth Percent (786-0): 65.15%; Growth Percent (UO-31): 69.24%; Growth Percent (RXF 393): 63.80%; Growth Percent (PC-3): 75.00%; Growth Percent (BT-549): 81.58%; Growth Percent (T-47D): 44.33%; Growth Percent (MDA-MB-468): 69.27%
Cc1ccc(C(=O)Nc2c(NC(=O)CN3CCN(C)CC3)ccc3c2C(=O)c2ccccc2C3=O)cc1 [CC-43, 1-(4-methylbenzamido)-2-[2-(4-methylpiperazino)acetylamino]-anthraquinone] | 78.8 ± 3.47 | 29.5 | 8.11 | 26.04 | 78.07 | 89.52 | 2.29 | 59.11 | 62.68 | 68.75 | 22.38 | 10.84 | 11.15 | 123.64 | −57.56 | 41.30 | −20.65 | 112.20 | −6.15 | 57.11 | Growth Percent (SR): −43.70%; Growth Percent (OVCAR-5): 106.66%; Growth Percent (OVCAR-8): 46.43%; Growth Percent (NCI/ADR-RES): 66.74%; drug-resistance against adriamycin (ADR) (NCI/ADR-RES; human multiple drug-resistant cell NCI/ADR-RES): possessed drug-resistance against adriamycin (ADR); Growth Percent (SK-OV-3): 108.91%; Growth Percent (786-0): 11.90%; Growth Percent (UO-31): 70.66%; Growth Percent (RXF 393): 68.84%; Growth Percent (PC-3): 84.75%; Growth Percent (BT-549): 91.88%; Growth Percent (T-47D): 52.62%; Growth Percent (MDA-MB-468): 7.43%
